The results in this text go back to paper PMC8949142 (2022).

The term KD denotes the constant that tells how readily two partners part at equilibrium. Low values mean tighter binding, high ones weaker binding. A word on the EC50: it is the concentration that produces a half-maximal response.

Test [1] deals with G48nop (DNA, aptamer) GCGACCGAAGTGAGGCTCGATCCAAGGTGGACGGGAGGTTGGATTGTGCGTG
Description: biolayer interferometry. The settings on record: 100 mM Na+, 5 mM K+, 2 mM Mg2+, 1 mM Ca2+, 20 mM Tris-HCl pH 7.6.

Test [2] has as its system G48nop (FAM) (DNA, aptamer) GCGACCGAAGTGAGGCTCGATCCAAGGTGGACGGGAGGTTGGATTGTGCGTG
The experiment in a line: microscale thermophoresis. To be noted: 100 mM Na+, 5 mM K+, 2 mM Mg2+, 1 mM Ca2+, 20 mM Tris-HCl pH 7.6, 0.02% Tween-20, 25 °C. (In MST a laser heats a spot of the sample, and binding alters the fluorescence response.)

Test [3] deals with control (random) sequence (FAM) (DNA, single strand) GAGCCTTAGCAGCACTTCACACGATCCACCCTTAAGGCCAACCTTAACACGACCTCAAACACTGCGTAATGACTGTAGTGATGCCTTA
The experiment in a line: microscale thermophoresis. The settings on record: 100 mM Na+, 5 mM K+, 2 mM Mg2+, 1 mM Ca2+; 20 mM Tris-HCl pH 7.6, 0.02% Tween-20, 25 °C; GYM-A up to 10,000 nM; not fittable.

Test [4] concerns G48norsj (DNA, aptamer) CGATCCAAGGTGGACGGGAGGTTGGATTG
Description: biolayer interferometry. To be noted: 100 mM Na+, 5 mM K+, 2 mM Mg2+, 1 mM Ca2+; 20 mM Tris-HCl pH 7.6; 1:1 fit. In general terms: BLI is a label-free optical method that tracks binding on a fibre tip over time.

For test [5], the system named is G16 (DNA, aptamer) GGGAGGACGAAGCGGAACCACCTTGAGATGAGGCTCGATCACCGGTGGGTATAGTGGTCGCGATGTATACCAGAAGACACGCCCGACA
Description: biolayer interferometry. The settings on record: 100 mM Na+, 5 mM K+, 2 mM Mg2+, 1 mM Ca2+; 20 mM Tris-HCl pH 7.6; 1:1 fit.

In test [6] the test system is G48nors (DNA, aptamer) TGAGGCTCGATCCAAGGTGGACGGGAGGTTGGATTGTGCGTG
The experiment in a line: biolayer interferometry. The settings on record: 100 mM Na+, 5 mM K+, 2 mM Mg2+, 1 mM Ca2+; 20 mM Tris-HCl pH 7.6; 1:1 fit.

The test system of test [7] is random sequence (control) (DNA, single strand) GAGCCTTAGCAGCACTTCACACGATCCACCCTTAAGGCCAACCTTAACACGACCTCAAACACTGCGTAATGACTGTAGTGATGCCTTA
The experiment in a line: biolayer interferometry. To be noted: 100 mM Na+, 5 mM K+, 2 mM Mg2+, 1 mM Ca2+; 20 mM Tris-HCl pH 7.6; tested at 0.5 µM.

Test [8] deals with G13 (DNA, aptamer) GGGAGGACGAAGCGGAACCCATGGGGTGTGAGGCTCGATCAGGAGGTAAAAGCAGCGCGTCGTCAGTGTGCAGAAGACACGCCCGACA
Description: biolayer interferometry. To be noted: 100 mM Na+, 5 mM K+, 2 mM Mg2+, 1 mM Ca2+; 20 mM Tris-HCl pH 7.6; 1:1 fit.

Test [9] deals with G24 (DNA, aptamer) GGGAGGACGAAGCGGAACGGGCGGGATTTGAGGCTCGATCCGACTACGGATACGGCTTGCTTGTATCCGCCAGAAGACACGCCCGACA
The experiment in a line: biolayer interferometry. To be noted: 100 mM Na+, 5 mM K+, 2 mM Mg2+, 1 mM Ca2+; 20 mM Tris-HCl pH 7.6; 1:1 fit.

For test [10], the system named is G48nop (unlabeled) (DNA, aptamer) GCGACCGAAGTGAGGCTCGATCCAAGGTGGACGGGAGGTTGGATTGTGCGTG
Description: circular dichroism. To be noted: 100 mM Na+, 5 mM K+, 2 mM Mg2+, 1 mM Ca2+; 20 mM Tris-HCl pH 7.6, 20 °C; 5 µM aptamer; qualitative. Background: Circular dichroism is the unequal absorption of left and right circularly polarised light.

Test [11] deals with G79 (DNA, aptamer) GGGAGGACGAAGCGGAACGGGGGTGGGTTGAGGCTCGATCATGATAGCGAATTGGACACGATTCGTGTACCAGAAGACACGCCCGACA
Description: biolayer interferometry. The settings on record: 100 mM Na+, 5 mM K+, 2 mM Mg2+, 1 mM Ca2+; 20 mM Tris-HCl pH 7.6; 1:1 fit.

For test [12], the system named is G48nop (DNA, aptamer) GCGACCGAAGTGAGGCTCGATCCAAGGTGGACGGGAGGTTGGATTGTGCGTG
The experiment in a line: BLI aptasensor calibration, five-parameter logistic fit. The settings on record: 100 mM Na+, 5 mM K+, 2 mM Mg2+, 1 mM Ca2+; 20 mM Tris-HCl pH 7.6; GYM-A 55–14,000 nM; slope exponent -0.7837.

For test [13], the system named is G48 (DNA, aptamer) GGGAGGACGAAGCGGAACGCGACCGAAGTGAGGCTCGATCCAAGGTGGACGGGAGGTTGGATTGTGCGTGCAGAAGACACGCCCGACA
The experiment in a line: biolayer interferometry. The settings on record: 100 mM Na+, 5 mM K+, 2 mM Mg2+, 1 mM Ca2+; 20 mM Tris-HCl pH 7.6; 1:1 fit.

Test [14] has as its system G29 (DNA, aptamer) GGGAGGACGAAGCGGAACCGTAGGAAAGTGAGGCTCGATCTACCCTTGGATCGATTTGTCAGGTGGGGACCAGAAGACACGCCCGACA
The experiment in a line: biolayer interferometry. To be noted: 100 mM Na+, 5 mM K+, 2 mM Mg2+, 1 mM Ca2+; 20 mM Tris-HCl pH 7.6; 1:1 fit.

Consider `C=C1[C@@H](O)[C@@H]2O[C@]3(CC[C@H](/C=C/[C@@H](C)[C@@H]4CC(C)=C[C@@]5(O[C@H](C[C@@](C)(O)C(=O)O)CC[C@H]5O)O4)O3)CC[C@H]2O[C@@H]1[C@@H](O)C[C@H](C)[C@H]1O[C@@]2(CCCCO2)CC[C@H]1C`, for which the binding entry in test [1] (tested up to 1.5 µM) is recorded as “no”; in test [2] (NB [sic], highest concentration not stated) it was “no”.
Take `CC1=C[C@@H](C2=C(C)[C@@H]3/C=C(\C)[C@@H](O)CC[C@@H]4C[C@@H](C)[C@@H](O4)/C(C)=C/CCC4=NCCC[C@@]43CC2)OC1=O`: the binding result in [3] is on record as “no”; in test [7], “no”; in [10], “yes”. Further, the KD in [4] is 501.00 nM; in test [5], 495 nM; in test [6] it was 354.00 nM; in test [8], 168,000 nM; in [9], 859 nM; in test [1] (1:1 fit) it was 95.30 nM. For the same compound, the dissociation constant KD was 341 nM in test [11], 288 nM in test [13], 34.50 ± 1.72 nM in test [2] and 308 nM in [14]. The compound also yielded an EC50 in [12] of 3316 nM.
